According to PubChem BioAssay (NCI):
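Exposure lasted 48 hours, with cells grown in 96-well plates and compounds tested at five concentrations. The concentration for 50% growth inhibition is given as GI50. TGI denotes the concentration required for complete inhibition of growth.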

Legend:
Experiment in all cases: NCI anticancer screen, dose series, 48 h
UO-31 renal = test system: UO-31 renal
K-562 leukemia = test system: K-562 leukemia
OVCAR-5 ovarian = test system: OVCAR-5 ovarian
MOLT-4 leukemia = test system: MOLT-4 leukemia
HL-60(TB) leukemia = test system: HL-60(TB) leukemia
SF-268 CNS = test system: SF-268 CNS
SK-MEL-5 melanoma = test system: SK-MEL-5 melanoma
HOP-62 NSCLC = test system: HOP-62 NSCLC
NCI-H460 lung = test system: NCI-H460 lung
A549 NSCLC = test system: A549 NSCLC
ACHN renal = test system: ACHN renal
MDA-MB-231 breast = test system: MDA-MB-231 breast
OVCAR-3 ovarian = test system: OVCAR-3 ovarian
NCI/ADR-RES ovarian = test system: NCI/ADR-RES ovarian
HS 578T breast = test system: HS 578T breast
HOP-92 NSCLC = test system: HOP-92 NSCLC
MCF7 breast = test system: MCF7 breast
RPMI-8226 leukemia = test system: RPMI-8226 leukemia
IGROV1 ovarian = test system: IGROV1 ovarian
A498 renal = test system: A498 renal
MDA-MB-435 = test system: MDA-MB-435
NCI-H23 lung = test system: NCI-H23 lung
KM12 colon = test system: KM12 colon
LOX IMVI melanoma = test system: LOX IMVI melanoma
U251 CNS = test system: U251 CNS
NCI-H226 lung = test system: NCI-H226 lung
CCRF-CEM leukemia = test system: CCRF-CEM leukemia
T-47D breast = test system: T-47D breast
RXF 393 renal = test system: RXF 393 renal
UACC-62 melanoma = test system: UACC-62 melanoma
MALME-3M melanoma = test system: MALME-3M melanoma
SNB-19 CNS = test system: SNB-19 CNS
SN12C renal = test system: SN12C renal
UACC-257 melanoma = test system: UACC-257 melanoma
COLO 205 colon = test system: COLO 205 colon
M14 melanoma = test system: M14 melanoma
TK-10 renal = test system: TK-10 renal
HCC-2998 colon = test system: HCC-2998 colon
BT-549 breast = test system: BT-549 breast
HT29 colon = test system: HT29 colon
SK-MEL-28 melanoma = test system: SK-MEL-28 melanoma
DU-145 prostate = test system: DU-145 prostate
OVCAR-8 ovarian = test system: OVCAR-8 ovarian
NCI-H522 lung = test system: NCI-H522 lung
EKVX NSCLC = test system: EKVX NSCLC
786-0 renal = test system: 786-0 renal
HCT-15 colon = test system: HCT-15 colon
HCT-116 colon = test system: HCT-116 colon
PC-3 prostate = test system: PC-3 prostate
SR leukemia = test system: SR leukemia
CAKI-1 renal = test system: CAKI-1 renal
SNB-75 CNS = test system: SNB-75 CNS
SK-OV-3 ovarian = test system: SK-OV-3 ovarian
SW-620 colon = test system: SW-620 colon
SK-MEL-2 melanoma = test system: SK-MEL-2 melanoma
SF-539 CNS = test system: SF-539 CNS
OVCAR-4 ovarian = test system: OVCAR-4 ovarian
SF-295 CNS = test system: SF-295 CNS

## COc1c(B(O)O)cccc1-c1nc2c(F)cc3[nH]ncc3c2c2c1CCCC2
UO-31 renal
  GI50: 0.405 µM
  TGI: 19.4 µM
K-562 leukemia
  GI50: 2.14 µM
  TGI: > 100 µM
OVCAR-5 ovarian
  GI50: 2.65 µM
  TGI: 56.8 µM
MOLT-4 leukemia
  GI50: 0.844 µM
  TGI: > 100 µM
HL-60(TB) leukemia
  GI50: 0.436 µM
  TGI: 11.3 µM
SF-268 CNS
  GI50: 2.1 µM
  TGI: 18.8 µM
SK-MEL-5 melanoma
  GI50: 3.08 µM
  TGI: 11.5 µM
HOP-62 NSCLC
  GI50: 0.133 µM
  TGI: 27.1 µM
NCI-H460 lung
  GI50: 1.79 µM
  TGI: 11.9 µM
A549 NSCLC
  GI50: 1.05 µM
  TGI: > 55.8 µM
ACHN renal
  GI50: 0.845 µM
  TGI: 42.8 µM
MDA-MB-231 breast
  GI50: 0.0423 µM
  TGI: 35.9 µM
OVCAR-3 ovarian
  GI50: 2.87 µM
  TGI: 19.3 µM
NCI/ADR-RES ovarian
  GI50: 2.44 µM
  TGI: 22.1 µM
HS 578T breast
  GI50: 0.0716 µM
  TGI: 20.8 µM
HOP-92 NSCLC
  GI50: 0.0184 µM
  TGI: 56.8 µM
MCF7 breast
  GI50: 1.31 µM
  TGI: 13.5 µM
RPMI-8226 leukemia
  GI50: 0.579 µM
  TGI: 4.59 µM
IGROV1 ovarian
  GI50: 1.41 µM
  TGI: 23.5 µM
A498 renal
  GI50: 0.172 µM
  TGI: 3.31 µM
MDA-MB-435
  GI50: 0.287 µM
  TGI: 2.06 µM
NCI-H23 lung
  GI50: 1.72 µM
  TGI: 10.8 µM
KM12 colon
  GI50: 1.41 µM
  TGI: 11.7 µM
LOX IMVI melanoma
  GI50: 0.865 µM
  TGI: 5.62 µM
U251 CNS
  GI50: 1.77 µM
  TGI: > 44.9 µM
NCI-H226 lung
  GI50: 1.44 µM
  TGI: 22.7 µM
CCRF-CEM leukemia
  GI50: 0.633 µM
  TGI: 6.92 µM
T-47D breast
  GI50: 2.56 µM
  TGI: 22.2 µM
RXF 393 renal
  GI50: 0.0459 µM
  TGI: 1.67 µM
UACC-62 melanoma
  GI50: 1.14 µM
  TGI: 9.53 µM
MALME-3M melanoma
  GI50: 3.71 µM
  TGI: 9.11 µM
SNB-19 CNS
  GI50: 1.66 µM
  TGI: 37.9 µM
SN12C renal
  GI50: 1.24 µM
  TGI: 45 µM
UACC-257 melanoma
  GI50: 3.37 µM
  TGI: 24 µM
COLO 205 colon
  GI50: 1.61 µM
  TGI: 6.19 µM
M14 melanoma
  GI50: 3.8 µM
  TGI: 15.5 µM
TK-10 renal
  GI50: 0.0391 µM
  TGI: > 38.4 µM
HCC-2998 colon
  GI50: 2.22 µM
  TGI: 8.91 µM
BT-549 breast
  GI50: 0.116 µM
  TGI: 3.02 µM
HT29 colon
  GI50: 3.07 µM
  TGI: > 44 µM
SK-MEL-28 melanoma
  GI50: 2.95 µM
  TGI: 11.3 µM
DU-145 prostate
  GI50: 2.18 µM
  TGI: 26.9 µM
OVCAR-8 ovarian
  GI50: 2.03 µM
  TGI: > 100 µM
NCI-H522 lung
  GI50: 1.98 µM
  TGI: 13.1 µM
EKVX NSCLC
  GI50: 2.61 µM
  TGI: 34.3 µM
786-0 renal
  GI50: 1.33 µM
  TGI: 17.6 µM
HCT-15 colon
  GI50: 2.24 µM
  TGI: 27.6 µM
HCT-116 colon
  GI50: 0.422 µM
  TGI: > 53.6 µM
PC-3 prostate
  GI50: 1.73 µM
  TGI: > 29 µM
SR leukemia
  GI50: 2.13 µM
  TGI: > 88.5 µM
CAKI-1 renal
  GI50: 0.333 µM
  TGI: 3.26 µM
SNB-75 CNS
  GI50: 0.0246 µM
  TGI: 0.498 µM
SK-OV-3 ovarian
  GI50: 1.5 µM
  TGI: 36.1 µM
SW-620 colon
  GI50: 0.604 µM
  TGI: 14.4 µM
SK-MEL-2 melanoma
  GI50: 2.42 µM
  TGI: 6.8 µM
SF-539 CNS
  GI50: 0.343 µM
  TGI: 4.99 µM
OVCAR-4 ovarian
  GI50: 5.49 µM
  TGI: 58.3 µM
SF-295 CNS
  GI50: 2.23 µM
  TGI: 12.8 µM
